{"source": "paper PMC12486440", "about": "“Design, synthesis, and in silico studies of new benzofuran–pyrazole hybrids as multi-kinase inhibitors with potential antiproliferative activity” (RSC Advances, 2025)", "key": {"Leukemia subpanel": {"system": "Leukemia subpanel", "experiment": "NCI 60 subpanel summary", "type": "cell-based, human"}, "NSCL cancer subpanel": {"system": "NSCL cancer subpanel", "experiment": "NCI 60 subpanel summary", "type": "cell-based, human"}, "Colon cancer subpanel": {"system": "Colon cancer subpanel", "experiment": "NCI 60 subpanel summary", "type": "cell-based, human"}, "HepG-2 cancer cells": {"system": "HepG-2 cancer cells", "experiment": "Annexin V-FITC/PI apoptosis detection", "type": "cell-based, human", "details": "24 h", "protocol": "The annexin V-FITC apoptosis detection kit (BD Biosciences) was used to quantify the percentage of cells undergoing apoptosis and detect the modes of cell death, either by apoptosis or necrosis, in the presence or absence of the active compound 3d. The experiment was carried out according to the manufacturer's protocol. More details are presented in the SI.\nFlow cytometry assay employing annexin V-FITC and propidium iodide double labeling was used to further examine the apoptotic impact of compound 3d.[81,82] […] Additionally, 3d enhanced the late apoptotic effect from 0.17% in the control cells to 15.07% in the treated cells. Moreover, compound 3d promoted necrosis by 4.32% in the 3d-treated cells in comparison with 1.4% in the untreated ones (Table 5 and Fig. 4). These findings support the cytotoxic action of compound 3d on HepG-2 cells. In addition, it implies that its cytotoxic impact is not only due to it initiating programmed cell death pathways in an orderly manner but also its ability to effectively complete the apoptotic process, which results in the fragmentation and removal of cancer cells. […]\n5.2.4. Annexin-V FTIC apoptotic study\nEstimation of fractional DNA content (aka sub-G1 assay) is a widely used assay to determine apoptosis. Cleavage of genomic DNA into smaller fragments (180–200 bp lengths) is a hallmark for apoptosis in numerous cells. PI stained cells will stain less intensely and show a peak below the G1 peak (Sub-G1). In this work, flow cytometer with Annexin V-fluorescein isothiocyanate/propidium iodide FITC/PI double staining apoptosis detection kit (K101, Biovision) was used to study apoptosis of MCF-7 cells treated with compound 3d. Cells were incubated, collected by centrifugation, re-suspended in 500 μL of 1X binding buffer. Annexin V-FITC (5 μL) and PI (5 μL) was added and incubation was continued for additional 5 min in the dark at room temperature. Annexin V-FITC binding was analyzed by flow cytometry using FITC signal detector (FL1) and PI staining by FL2 phycoerythrin emission signal detector [75]."}, "COLO 205": {"system": "COLO 205", "details": "Homo sapiens, COLO 205"}, "BT-549": {"system": "BT-549", "details": "Homo sapiens, BT-549"}, "[1]": {"details": "Homo sapiens, subpanel mean graph midpoint, read-out: MG-MID (GI50)"}, "[2]": {"details": "full panel MG-MID / subpanel MG-MID"}, "[3]": {"details": "single dose 10 μM, non-small lung carcinoma"}, "[4]": {"details": "single dose 10 μM, colon cancer"}, "[5]": {"details": "single dose 10 μM, renal carcinoma"}}, "data": [{"smiles": "c1ccc(-n2cc(C3CC(c4nc5ccccc5[nH]4)=NN3)c(-c3cc4ccccc4o3)n2)cc1", "note": "(centres unmarked) [3d, 3-(Benzofuran-2-yl)-4-(3-(1H-benzo[d]imidazol-2-yl)-4,5-dihydro-1H-pyrazol-5-yl)-1-phenyl-1H-pyrazole]", "values": [{"measurement": "GI50", "setting": "Leukemia subpanel; [1]", "value": 3.23, "unit": "µM"}, {"measurement": "Selectivity index", "setting": "Leukemia subpanel; [2]", "value": 1.30}, {"measurement": "GI50", "setting": "NSCL cancer subpanel; [1]", "value": 4.02, "unit": "µM"}, {"measurement": "Selectivity index", "setting": "NSCL cancer subpanel; [2]", "value": 1.04}, {"measurement": "GI50", "setting": "Colon cancer subpanel; [1]", "value": 5.02, "unit": "µM"}, {"measurement": "Selectivity index", "setting": "Colon cancer subpanel; [2]", "value": 0.83}, {"measurement": "Late apoptosis", "setting": "HepG-2 cancer cells; control 0.17", "value": 15.07, "unit": "%"}, {"measurement": "Early apoptosis", "setting": "HepG-2 cancer cells; control 0.52", "value": 24.66, "unit": "%"}, {"measurement": "Necrosis", "setting": "HepG-2 cancer cells; control 1.4", "value": 4.32, "unit": "%"}, {"measurement": "Apoptosis, total", "setting": "HepG-2 cancer cells; control 2.09", "value": 44.05, "unit": "%"}, {"measurement": "GI50", "setting": "K-562; Homo sapiens, K562", "value": 3.37, "unit": "µM"}, {"measurement": "GI%", "setting": "K-562; single dose 10 μM, leukemia", "value": 92.52, "unit": "%"}, {"measurement": "GI50", "setting": "SR; Homo sapiens, SR", "value": 3.15, "unit": "µM"}, {"measurement": "GI%", "setting": "SR; single dose 10 μM, leukemia", "value": 91.17, "unit": "%"}, {"measurement": "GI50", "setting": "HOP-62; Homo sapiens, HOP-62", "value": 3.66, "unit": "µM"}, {"measurement": "GI%", "setting": "HOP-62; [3]", "value": 74.46, "unit": "%"}, {"measurement": "GI50", "setting": "NCI-H23; Homo sapiens, NCI-H23", "value": 3.69, "unit": "µM"}, {"measurement": "GI%", "setting": "NCI-H23; [3]", "value": 78.78, "unit": "%"}, {"measurement": "GI50", "setting": "NCI-H522; Homo sapiens, NCI-H522", "value": 3.48, "unit": "µM"}, {"measurement": "GI%", "setting": "NCI-H522; [3]", "value": 96.77, "unit": "%"}, {"measurement": "GI50", "setting": "COLO 205", "value": 5.28, "unit": "µM"}, {"measurement": "GI50", "setting": "HCC-2998; Homo sapiens, HCC 2998", "value": 5.25, "unit": "µM"}, {"measurement": "GI%", "setting": "HCC-2998; [4]", "value": 70.76, "unit": "%"}, {"measurement": "GI50", "setting": "HCT-116; Homo sapiens, HCT-116", "value": 5.46, "unit": "µM"}, {"measurement": "GI%", "setting": "HCT-116; [4]", "value": 76.76, "unit": "%"}, {"measurement": "GI50", "setting": "SF-295; Homo sapiens, SF-295", "value": 2.59, "unit": "µM"}, {"measurement": "GI%", "setting": "SF-295; single dose 10 μM, CNS cancer", "value": 84.73, "unit": "%"}, {"measurement": "GI50", "setting": "OVCAR-3; Homo sapiens, OVCAR-3", "value": 4.91, "unit": "µM"}, {"measurement": "GI%", "setting": "OVCAR-3; single dose 10 μM, ovarian carcinoma", "value": 81.63, "unit": "%"}, {"measurement": "GI50", "setting": "786–0; Homo sapiens, 786-0", "value": 4.31, "unit": "µM"}, {"measurement": "GI%", "setting": "786–0; [5]", "value": 71.73, "unit": "%"}, {"measurement": "GI50", "setting": "CAKI-1; Homo sapiens, CAKI-1", "value": 2.57, "unit": "µM"}, {"measurement": "GI%", "setting": "CAKI-1; [5]", "value": 92.45, "unit": "%"}, {"measurement": "GI50", "setting": "DU-145; Homo sapiens, DU-145", "value": 5.15, "unit": "µM"}, {"measurement": "GI%", "setting": "DU-145; single dose 10 μM, prostate carcinoma", "value": 67.57, "unit": "%"}, {"measurement": "GI50", "setting": "BT-549", "value": 3.85, "unit": "µM"}, {"measurement": "GI50", "setting": "T-47D; Homo sapiens, T47D", "value": 3.12, "unit": "µM"}, {"measurement": "GI%", "setting": "T-47D; single dose 10 μM, breast carcinoma", "value": 88.48, "unit": "%"}]}]}
